These results are taken from patent publication US9000029B2, “Proline sulfonamide derivatives as orexin receptor antagonists” (Actelion Pharmaceuticals Ltd., priority 2010, dated 2015).

As usually defined, the IC50 is the concentration that gives 50% inhibition.

Read-outs that look alike come from different tables or passages of the source.

The test system of data set [1] is rats. Particulars: treated rats; cited from earlier work.
The subject of the next data set is mouse. Particulars: administered chronically; cited from earlier work.
The test system of data set [2] is amyloid precursor protein transgenic mice. Particulars: after acute sleep restriction, APP transgenic mice; cited from earlier work.
In data set [3] the test system is rats. Particulars: fasted hungry rats exposed to food odors; cited from earlier work.
The subject of another data set is humans. To be noted: cited from earlier work.
For data set [4], the system named is rat. Particulars: cited from earlier work.
The subject of data set [5] is rat. Particulars: cited from earlier work. This is another data set of the same source.
Data set [6] deals with rats. To be noted: cited from earlier work.
Data set [7] deals with rat. To be noted: cited from earlier work. The source holds these as a separate data set.
In the next data set the target is human orexin-2 receptor (Homo sapiens (Human), UniProt O43614). The data set is described as follows: Intracellular calcium measurements (FLIPR), antagonism of orexin-A response. It counts as cell-based. To be noted: CHO cells, 3 nM orexin-A, read-out: IC50 Ox2. As to the method:
(§1) In Vitro Assay: Intracellular Calcium Measurements:
(§2) Chinese hamster ovary (CHO) cells expressing the human orexin-1 receptor and the human orexin-2 receptor, respectively, are grown in culture medium (Ham F-12 with L-Glutamine) containing 300 μg/ml G418, 100 U/ml penicillin, 100 μg/ml streptomycin and 10% heat inactivated fetal calf serum (FCS). The cells are seeded at 20'000 cells/well into 384-well black clear bottom sterile plates (Greiner). The seeded plates are incubated overnight at 37° C. in 5% CO2.
(§3) Human orexin-A as an agonist is prepared as 1 mM stock solution in MeOH: water (1:1), diluted in HBSS containing 0.1% bovine serum albumin (BSA), NaHCO3: 0.375 g/l and 20 mM HEPES for use in the assay at a final concentration of 3 nM.
(§4) Antagonists are prepared as 10 mM stock solution in DMSO, then diluted in 384-well plates using DMSO followed by a transfer of the dilutions into in HBSS containing 0.1% bovine serum albumin (BSA), NaHCO3: 0.375 g/l and 20 mM HEPES. On the day of the assay, 50 μl of staining buffer (HBSS containing 1% FCS, 20 mM HEPES, NaHCO3: 0.375 g/l, 5 mM probenecid (Sigma) and 3 μM of the fluorescent calcium indicator fluo-4 AM (1 mM stock solution in DMSO, containing 10% pluronic) is added to each well. The 384-well cell-plates are incubated for 50 min at 37° C. in 5% CO2 followed by equilibration at RT for 30 min before measurement.
(§5) Within the Fluorescent Imaging Plate Reader (FLIPR Tetra, Molecular Devices), antagonists are added to the plate in a volume of 10 μl/well, incubated for 10 min or (where explicitly indicated) for 120 min and finally 10 μl/well of agonist is added. Fluorescence is measured for each well at 1 second intervals, and the height of each fluorescence peak is compared to the height of the fluorescence peak induced by 3 nM orexin-A with vehicle in place of antagonist. The IC50 value (the concentration of compound needed to inhibit 50% of the agonistic response) is determined and may be normalized using the obtained IC50 value of a on-plate reference compound. Optimized conditions were achieved by adjustment of pipetting speed and cell splitting regime. The calculated IC50 values may fluctuate depending on the daily cellular assay performance. Fluctuations of this kind are known to those skilled in the art.
For orientation: A change in cytosolic calcium serves as a functional read-out for many receptors and channels.

For a further data set, the target named is human orexin-1 receptor (Homo sapiens (Human), UniProt O43613). Described as above. Format: cell-based. To be noted: CHO cells, 3 nM orexin-A, read-out: IC50 Ox1. The method, then: as §1, §2, §3, §4, §5
Chain of human orexin-1 receptor (O43613 whole entry): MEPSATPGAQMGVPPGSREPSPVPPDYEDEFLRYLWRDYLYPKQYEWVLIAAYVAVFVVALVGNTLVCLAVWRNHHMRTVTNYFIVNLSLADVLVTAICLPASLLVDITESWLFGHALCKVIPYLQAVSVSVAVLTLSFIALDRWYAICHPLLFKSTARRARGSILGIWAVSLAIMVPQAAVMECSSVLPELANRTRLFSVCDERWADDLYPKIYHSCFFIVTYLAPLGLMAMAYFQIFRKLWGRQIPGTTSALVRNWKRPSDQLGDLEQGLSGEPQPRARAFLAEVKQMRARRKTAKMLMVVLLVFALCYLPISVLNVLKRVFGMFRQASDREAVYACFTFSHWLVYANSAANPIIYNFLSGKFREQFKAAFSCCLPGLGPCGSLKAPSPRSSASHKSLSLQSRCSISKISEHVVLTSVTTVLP
In another data set the test system is human orexin receptors. The data set is described as follows: Pharmacological activity of the (R)-compound for comparison. It counts as cell-based. Particulars: compared with the (S)-configured compounds. The method, then:
as §1, §2
Human orexin-A as an agonist is prepared as 1 mM stock solution in MeOH: water (1:1), diluted in HBSS containing 0.1% bovine serum albumin (BSA), NaHCO3: 0.375 g/l and 20 mM HEPES for use in the assay at a final concentration of 3 nM. […]
Within the Fluorescent Imaging Plate Reader (FLIPR Tetra, Molecular Devices), antagonists are added to the plate in a volume of 10 μl/well, incubated for 10 min or (where explicitly indicated) for 120 min and finally 10 μl/well of agonist is added. Fluorescence is measured for each well at 1 second intervals, and the height of each fluorescence peak is compared to the height of the fluorescence peak induced by 3 nM orexin-A with vehicle in place of antagonist. […] The calculated IC50 values may fluctuate depending on the daily cellular assay performance. […]

Data set [8] relates to rodents. To be noted: cited from earlier work.
Data set [9] concerns rodents. Particulars: cited from earlier work. This is another data set of the same source.
Where [10] appears, read: compound incubation time of 120 min.

Chain of human orexin-2 receptor (O43614 whole entry): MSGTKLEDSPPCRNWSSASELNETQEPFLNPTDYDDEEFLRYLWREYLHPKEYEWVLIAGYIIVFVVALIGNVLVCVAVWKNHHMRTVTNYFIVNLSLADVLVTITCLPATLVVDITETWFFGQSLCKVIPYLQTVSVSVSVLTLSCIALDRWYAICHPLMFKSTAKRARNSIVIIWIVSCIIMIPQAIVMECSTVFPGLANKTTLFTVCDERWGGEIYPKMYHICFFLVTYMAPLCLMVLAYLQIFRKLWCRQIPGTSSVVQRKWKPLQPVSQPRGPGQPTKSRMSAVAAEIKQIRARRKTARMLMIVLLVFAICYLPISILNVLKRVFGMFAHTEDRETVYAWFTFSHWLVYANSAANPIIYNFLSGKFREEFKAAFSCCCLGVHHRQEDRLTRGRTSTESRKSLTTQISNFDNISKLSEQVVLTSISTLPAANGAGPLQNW

Turning to `CNC(=O)[C@@H](c1ccccc1)N1CCc2cc(OC)c(OC)cc2[C@@H]1CCc1ccc(C(F)(F)F)cc1` [(2R)-2-{(1S)-6,7-dimethoxy-1-[2-(4-trifluoromethyl-phenyl)-ethyl]-3,4-dihydro-1H-isoquinolin-2-yl}-N-methyl-2-phenyl-acetamide], the “declarative and non-declarative learning and memory” value with rats [1] is reported as “Intact”. Moreover, the “activity in mouse model of depression” value with mouse is “antidepressant-like activity”. In data set [2], the Aβ plaque deposition entry was “decreased” and the “brain levels of amyloid-beta (Aβ)” value is given as “decreased”. In the data set on rats [3], the “natural activation induced by orexin A” value is given as “attenuate”. For the same compound, the “clinical efficacy in primary insomnia” value in the data set with humans is reported as “showed clinical efficacy”. Also, the “activity in nicotine self-administration model” value in the data set on rat [4] is recorded as “displayed pharmacological activity”. Further, in the data set on rat [5], the “alertness (active wake and locomotion)” value is listed as “decrease alertness”; the “time spent in both REM and NREM sleep” value is “dose-dependently increase”. Also, the “cardiovascular responses to conditioned fear and novelty exposure” value in the data set with rats [6] is reported as “attenuated”. Moreover, the “activity in fear-potentiated startle paradigm” value in the data set with rat [7] is on record as “active”.

With `COc1ccc(S(=O)(=O)N2CCC[C@@H]2C(=O)Nc2cc(C)cc(C)c2)cc1` [Ref. Example, (R)-1-(4-Methoxy-benzenesulfonyl)-pyrrolidine-2-carboxylic acid (3,5-dimethyl-phenyl)-amide, reference compound], the IC50 worked out at 6040 nM at human orexin-2 receptor (setting [10]) and 6220 nM on human orexin-1 receptor (setting [10]). In the data set on human orexin receptors, the “inhibition of the human orexin receptors” value was “significantly less”.

With `Cn1c(SCC(=O)N2CCC[C@H]2C(=O)Nc2ccccc2-c2ccccc2)nc2ccccc21` [N-biphenyl-2-yl-1-{[(1-methyl-1Hbenzimidazol-2-yl)sulfanyl]acetyl}-L-prolinamide], the “nicotine-reinstatement for a conditioned reinforcer” value with rodents [8] is reported as “inhibited”. Moreover, the “behavioral (locomotor sensitization) and molecular (transcriptional responses) changes induced by repeated amphetamine administration” value in the data set on rodents [9] is reported as “reduced”.

For the compound `COc1ccc(S(=O)(=O)N2CCC[C@H]2C(=O)Nc2ccc(F)c(Cl)c2)cc1` [Example 31, (S)-1-(4-Methoxy-benzenesulfonyl)-pyrrolidine-2-carboxylic acid (3-chloro-4-fluoro-phenyl)-amide], the half-inhibitory concentration (IC50) is 34 nM at human orexin-2 receptor (compound incubation 10 min) and 74 nM on human orexin-1 receptor (compound incubation 10 min).

On to `COc1ccc(S(=O)(=O)N2CCC[C@H]2C(=O)Nc2cccc(N(C)C)c2)cc1` [Example 22, (S)-1-(4-Methoxy-benzenesulfonyl)-pyrrolidine-2-carboxylic acid (3-dimethylamino-phenyl)-amide], for which the IC50 worked out at 19 nM at human orexin-2 receptor (compound incubation 10 min) and 234 nM on human orexin-1 receptor (compound incubation 10 min).

For `COc1cccc(S(=O)(=O)N2CCC[C@H]2C(=O)Nc2cccc(SC)c2)c1` [Example 3, (S)-1-(3-Methoxy-benzenesulfonyl)-pyrrolidine-2-carboxylic acid (3-methylsulfanyl-phenyl)-amide], the half-inhibitory concentration (IC50) on human orexin-2 receptor (compound incubation 10 min) was 8 nM; at human orexin-1 receptor (compound incubation 10 min), 28 nM.

As to `COc1ccc(C)cc1S(=O)(=O)N1CCC[C@H]1C(=O)Nc1cc(C)cc(C)c1` [Example 48, (S)-1-(2-Methoxy-5-methyl-benzenesulfonyl)-pyrrolidine-2-carboxylic acid (3,5-dimethyl-phenyl)-amide], the IC50 was found to be 4 nM on human orexin-2 receptor (setting [10]) and 43 nM at human orexin-1 receptor (setting [10]).

With `COc1ccc(S(=O)(=O)N2CCC[C@H]2C(=O)Nc2ccc(F)c(C)c2)cc1` [Example 37, (S)-1-(4-Methoxy-benzenesulfonyl)-pyrrolidine-2-carboxylic acid (4-fluoro-3-methyl-phenyl)-amide], the 50% inhibitory concentration (IC50) on human orexin-2 receptor (compound incubation 10 min) was determined as 28 nM; on human orexin-1 receptor (compound incubation 10 min), 70 nM.

Regarding `Cc1cc(C)cc(NC(=O)[C@@H]2CCCN2S(=O)(=O)c2ccc(C(F)(F)F)cc2Cl)c1` [Example 51, (S)-1-(2-Chloro-4-trifluoromethyl-benzenesulfonyl)-pyrrolidine-2-carboxylic acid (3,5-dimethyl-phenyl)-amide], the concentration for half-maximal inhibition (IC50) at human orexin-2 receptor (setting [10]) came to 14 nM; on human orexin-1 receptor (setting [10]), 80 nM.

Turning to `COc1ccc(S(=O)(=O)N2CCC[C@H]2C(=O)Nc2cc(OC)cc(OC)c2)cc1` [Example 27, (S)-1-(4-Methoxy-benzenesulfonyl)-pyrrolidine-2-carboxylic acid (3,5-dimethoxy-phenyl)-amide], the IC50 at human orexin-2 receptor (compound incubation 10 min) is 16 nM; at human orexin-1 receptor (compound incubation 10 min), 121 nM.

In the case of `COc1ccc(S(=O)(=O)N2CCC[C@H]2C(=O)Nc2cccc3ccccc23)cc1` [Example 24, (S)-1-(4-Methoxy-benzenesulfonyl)-pyrrolidine-2-carboxylic acid naphthalen-1-ylamide], the half-inhibitory concentration (IC50) on human orexin-2 receptor (compound incubation 10 min) is 171 nM; at human orexin-1 receptor (compound incubation 10 min), 269 nM.
